From patent US10975071B2, “Inhibitors of KRAS G12C mutant proteins” (Araxes Pharma LLC, priority 2015, dated 2021) come the findings set out here.

The test deals with T1, KRAS G12C 1-169, his-tagged protein, GDP-loaded (Homo sapiens, UniProt P01116, G12C).
T1 construct: KRAS G12C 1-169, his-tagged protein, GDP-loaded
Kind of test: Biochemical assay: covalent binding to KRAS G12C measured by mass spectrometry. The procedure: Test compounds are prepared as 10 mM stock solutions in DMSO (Fisher cat# BP-231-100). KRAS G12C 1-169, his-tagged protein, GDP-loaded is diluted to […] in buffer (20 mM Hepes, 150 mM NaCl, 1 mM MgCl2). Compounds are tested for activity as follows:
Compounds are diluted to 50× final test concentration in DMSO in 96-well storage plates. Compound stock solutions are vortexed before use and observed carefully for any sign of precipitation. Dilutions are as follow: • For 100 μM final compound concentration, compounds are diluted to 5000 μM (5 μl 10 mM compound stock +5 μl DMSO and mixed well by pipetting. • For 30 μM final compound concentration, compounds are diluted to 1500 μM (3 μl 10 mM compound stock +17 μl DMSO) and mixed well by pipetting. • For 10 μM final compound concentration, compounds are diluted to 500 μM (2 μl 10 mM compound stock +38 μl DMSO) and mixed well by pipetting. 49 μl of the stock protein solution is added to each well of a 96-well PCR plate (Fisher cat#1423027). […] of the diluted 50× compounds are added to appropriate wells in the PCR plate using 12-channel pipettor. Reactions are mixed carefully and thoroughly by pipetting up/down with a 200 μl multi-channel pipettor. The plate is sealed well with aluminum plate seal, and stored in drawer at room temperature for 24 hrs. 5 μl of 2% formic acid (Fisher cat# Al 117) in DI H2O is then added to each well followed by mixing with a pipette. The plate is then resealed with aluminum seal and stored on dry ice until analyzed as described below.
The above described assays are analyzed by mass spectrometry according to the following procedure:
The MS instrument is set to positive polarity, 2 GHz resolution, and low mass (1700) mode and allowed to equilibrate for 30 minutes. The instrument is then calibrated, switched to acquisition mode and the appropriate method loaded.
After another 30 minute equilibration time, a blank batch (i.e., buffer) is run to ensure equipment is operating properly. The samples are thawed at 37° C. for 10 minutes, briefly centrifuged, and transfer to the bench top. Wells Al and H12 are spiked with 1 uL 500 uM internal standard peptide, and the plates centrifuged at 2000×g for 5 minutes. The method is then run and masses of each individual well recorded.
The masses (for which integration data is desired) for each well are pasted into the platemap and exported from the analysis. Masses for the internal standards are exported as well. The data at 50 ppm is extracted for the +19 charge state, and identity of well Al is assigned using the internal standard spike and integrated. Peak data is exported as a TOF list and the above steps are repeated individually, for the +20, 21, 22, 23, 24, and 25 charge states.

Structures are written as SMILES.

T1 sequence (P01116 1-169 isoform P01116-2 G12C): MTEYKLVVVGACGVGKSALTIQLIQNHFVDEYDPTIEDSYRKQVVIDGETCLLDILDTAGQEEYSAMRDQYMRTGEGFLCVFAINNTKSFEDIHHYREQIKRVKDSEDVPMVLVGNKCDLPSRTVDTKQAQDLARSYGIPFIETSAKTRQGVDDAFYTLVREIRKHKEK

On to `C=CC(=O)N1CCN(c2cnc3cc(-c4c(C)ccc5[nH]ncc45)c(Cl)cn23)CC1` [Compound 1, 1-(4-(6-chloro-7-(5-methyl-1H-indazol-4-yl)imidazo[1,2-a]pyridin-3-yl)piperazin-1-yl)prop-2-en-1-one], for which the Binding % entry is “++ (++ indicates binding activity greater than 5% and up to 50%)”.

Turning to `C=CC(=O)N1CCN(c2cnc3c(F)c(-c4c(O)cccc4F)c(Cl)cn23)CC1` [Compound 20, 1-(4-(6-chloro-8-fluoro-7-(2-fluoro-6-hydroxyphenyl)imidazo[1,2-a]pyridin-3-yl)piperazin-1-yl)prop-2-en-1-one], the Binding % result is given as “+++ (+++ indicates binding activity 50% or greater)”.

`C=CC(=O)N1CCN(c2c(NC(C)=O)nc3cc(-c4c(F)cccc4OC)c(Cl)cn23)CC1` [Compound 21, N-(3-(4-acryloylpiperazin-1-yl)-6-chloro-7-(2-fluoro-6-methoxyphenyl)imidazo[1,2-a]pyridin-2-yl)acetamide]: the Binding % entry is given as “+ (+ indicates binding activity up to 5)”.

In the case of `C=CC(=O)N1CCN(c2c(NC(C)=O)nc3cc(-c4c(O)cccc4F)c(C)cn23)CC1` [Compound 24, N-(3-(40 acryloylpiperazin-1-yl)-7-(2-fluoro-6-hydroxyphenyl)-6-methylimidazo[1,2-a]pyridin-2-yl)acetamide], the Binding % result was “+ (+ indicates binding activity up to 5)”.

With `C=CC(=O)N1CCN(C2=NCC(=O)Nc3c2cc(Cl)c(-c2c(O)cccc2F)c3F)CC1` [Compound 25, 5-(4-acryloylpiperazin-1-yl)-7-chloro-9-fluoro-8-(2-fluoro-6-hydroxyphenyl)-1,3-dihydro-2H-benzo[e][1,4] diazepin-2-one], the Binding % result is on record as “+ (+ indicates binding activity up to 5)”.

As for `C=CC(=O)N1CCN(C2=COC3C=C(c4c(O)cccc4F)C(Cl)=CC23)CC1` (stereo not drawn) [Compound 26, 1-(4-(5-chloro-6-(2-fluoro-6-hydroxyphenyl)-3a,7a-dihydrobenzofuran-3-yl)piperazin-1-yl)prop-2-en-1-one], the Binding % result is given as “+++ (+++ indicates binding activity 50% or greater)”.
